Reference: US9352015B2, “Antimicrobial peptides” (priority 2009, dated 2016)

Assay: RP-HPLC temperature profiling (peptide self-association parameter PA)
Type: physicochemical
Settings: enantiomer pairs of V681 analogs, 5° C. to 80° C., relative to peptide C
Outline: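 Peptide retention was profiled by RP-HPLC at pH 2 from 5 °C to 80 °C in 3 °C increments, using a linear gradient of 0.5% acetonitrile/min. The monomeric random-coil control peptide C profile was subtracted. PA is the maximum change in retention time relative to control C; higher PA means greater self-association.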

CC[C@@H](C)[C@@H](NC(=O)[C@@H](C)NC(=O)[C@@H](CCCCN)NC(=O)[C@@H](CC(C)C)NC(=O)[C@@H](C)NC(=O)[C@H](NC(=O)[C@@H](Cc1c[nH]cn1)NC(=O)[C@@H](CC(C)C)NC(=O)[C@H](NC(=O)[C@H](NC(=O)[C@@H](CCCCN)NC(=O)[C@@H](CCCCN)NC(=O)[C@@H](C)NC(=O)[C@@H](CO)NC(=O)[C@@H](CCCCN)NC(=O)[C@@H](Cc1ccccc1)NC(=O)[C@H](NC(=O)[C@@H](CCCCN)NC(=O)[C@@H](CC(C)C)NC(=O)[C@@H](Cc1ccccc1)NC(=O)[C@@H](CO)NC(=O)[C@@H](CCCCN)NC(=O)[C@@H](Cc1c[nH]c2ccccc12)NC(=O)[C@@H](CCCCN)NC(C)=O)[C@H](C)O)[C@H](C)O)C(C)C)[C@H](C)O)C(=O)N[C@H](CO)C(=O)N[C@H](CO)C(N)=O [Peptide D1, Ac-KWKSFLKTFKSAKKTVLHTALKAISS-amide]
PA (peptide self-association parameter): 2.1
